Assays:
[1] = In vivo antinociceptive activity (A.U.C.), animal pain model; details: area under the time effect curve
Text: *A.U.C. = area under the time effect curve.

[2] = versus morphine; R. Osborne et al., The Lancet, 1988, 828; cited from earlier work
[3] = molecular target: μ1 Receptor (opioid analgesia receptor) (Homo sapiens, UniProt P35372); assay type: binding
Text: compound which displaces 50% of a labelled competitive ligand from […]

Chain of μ1 Receptor (opioid analgesia receptor) (P35372 whole entry): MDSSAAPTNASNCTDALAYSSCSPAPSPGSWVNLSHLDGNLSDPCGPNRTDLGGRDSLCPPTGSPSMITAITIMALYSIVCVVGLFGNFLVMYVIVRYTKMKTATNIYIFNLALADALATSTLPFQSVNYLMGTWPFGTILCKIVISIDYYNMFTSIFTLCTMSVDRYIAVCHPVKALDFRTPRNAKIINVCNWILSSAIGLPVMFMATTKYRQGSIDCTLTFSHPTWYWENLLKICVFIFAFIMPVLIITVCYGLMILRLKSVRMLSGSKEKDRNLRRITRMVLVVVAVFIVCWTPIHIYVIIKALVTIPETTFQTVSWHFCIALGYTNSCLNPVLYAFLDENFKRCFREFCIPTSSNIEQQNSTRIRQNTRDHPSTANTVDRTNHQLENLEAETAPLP

| Compound | In vivo antinociceptive (A.U.C.) ([1]; 1 mg) | In vivo antinociceptive (A.U.C.) ([1]; 2 mg) | In vivo antinociceptive (A.U.C.) ([1]; 4 mg) | analgesic power compared with morphine [2] | In vivo antinociceptive (A.U.C.) ([1]; 8 mg) | binding affinity to the receptor (μ1), in words [3] |
| --- | --- | --- | --- | --- | --- | --- |
| CN1CC[C@]23c4c5ccc(O)c4O[C@H]2[C@@H](O)C=C[C@H]3[C@H]1C5 [Compound 1, morphine] | 197.3 | 241.4 | 738.3 | – | – | – |
| CN1CC[C@]23c4c5ccc(O)c4O[C@H]2[C@@H](O[C@@H]2O[C@H](C(=O)O)[C@@H](O)[C@H](O)[C@H]2O)C=C[C@H]3[C@H]1C5 [Compound 2, morphine-6-glucuronide] | – | 209.6 | 618.1 | more powerful analgesic than morphine itself | – | – |
| CN1CC[C@]23c4c5ccc(O)c4O[C@H]2[C@@H](O[C@@H]2OC(C(=O)O)=C[C@H](O)[C@H]2O)C=C[C@H]3[C@H]1C5 [Compound 3] | – | 205.0 | 168.5 | – | 175.5 | – |
| CN1CC[C@]23c4c5ccc(O)c4O[C@H]2[C@@H](O[C@@H]2O[C@H](C(=O)O)[C@@H](O)[C@H]2O)C=C[C@H]3[C@H]1C5 [Compound 4] | – | – | 238.1 | – | 68.3 | – |
| O=C(O)[C@H]1O[C@@H](O[C@H]2C=C[C@H]3[C@H]4Cc5ccc(O)c6c5[C@@]3(CCN4)[C@H]2O6)[C@H](O)[C@@H](O)[C@@H]1O [Compound 5] | – | 65.6 | 564.8 | – | 837.9 | – |
| CN1CC[C@]23c4c5ccc(O)c4O[C@H]2[C@@H](O[C@@H]2O[C@H](C(=O)O)[C@@H](O)[C@H](O)[C@H]2O)CC[C@H]3[C@H]1C5 [Compound 6, 1-(7,8-dihydromorphin-6-yl)-β-D-glucopyranosiduronic acid] | 277.4 | 720.4 | 753.3 | – | – | greatest binding affinity to the relevant receptor (μ1) |

From US5977326A, “Process for making morphine-6-glucuronide or substituted morphine-6-glucuronide” (priority 1991, dated 1999)
